No end group written: not given here.
Test system: ulnar osteotomies in New Zealand rabbits
Assay: Ulnar osteotomy fracture healing study in rabbits
Assay type: in vivo
Conditions: all rabbits (study and control groups); four-week study
Procedure: Ulnar osteotomies were carried out in forty, three-month-old New Zealand rabbits. Half of the rabbits were placed in a study group while the other half was placed in a control group. All the rabbits were anesthetized using intramuscular ketamine 35 mg/kg body weight mixed with Xylazine 5 mg/kg body weight and an ophthalmic band with gentamycin ophthalmic ointment. A dose of prophylactic intramuscular cefuraxmine 25 mg/kg body weight was also administered. The forelimb was shaved and prepped in a sterile fashion. Through a posterior incision, the muscles were retracted and the shaft of the ulna was identified. Osteotomy was carried out equidistant between the olecranon and the wrist joint. The osteotomy was irrigated with normal saline. The wound was closed in layers and dressed with betadine and opsite spray. The animals were kept together in similar conditions. On the third post-operative day, the study group was injected with about 2.5-5 mg/kg of the peptide, synthesized as described above, in 0.25 ml of sterile water around the osteotomy site, while the control group received 0.25 ml of normal saline at the osteotomy site. Every week, five rabbits in the control group and five in the study group were sacrificed and their limbs were dissected and stored in 2% formalin. The study was carried out for four weeks. […]

MIFVKTLTGKTIL [SHMSP, Met-Ile-Phe-Val-Lys-Thr-Leu-Thr-Gly-Lys-Thr-Ile-Leu]
tolerability (wound infections, deaths): no wound infections or deaths

— patent US7399826B1, “Peptide for promoting healing of fractures” (priority 2003, dated 2008)
